Reference: PubChem BioAssay (NCI)
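Test compounds were applied to cells in 96-well plates for 48 hours at 5 doses. At the GI50, growth is halved. TGI: concentration producing complete growth inhibition.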

Assays:
Assay in all cases: DTP human tumour cell line panel, 48 h
[1] = system: MALME-3M melanoma
[2] = system: OVCAR-5 ovarian
[3] = system: SN12C renal
[4] = system: SNB-19 CNS
[5] = system: BT-549 breast
[6] = system: SF-268 CNS
[7] = system: CAKI-1 renal
[8] = system: UO-31 renal
[9] = system: NCI-H226 lung
[10] = system: OVCAR-4 ovarian

Row | Structure (SMILES) | GI50 [1] | TGI [1] | GI50 [2] | TGI [2] | GI50 [3] | TGI [3] | GI50 [4] | TGI [4] | GI50 [5] | TGI [5] | GI50 [6] | TGI [6] | GI50 [7] | TGI [7] | GI50 [8] | TGI [8] | TGI [9] | TGI [10] | GI50 [9] | GI50 [10]
1 | COc1cc2c(cc1OC)C(=O)C(Br)CC2 (configuration not stated) | 3.31 µM | 8.18 µM | 5.47 µM | 18.2 µM | 3.49 µM | 12.8 µM | 8.96 µM | 21.3 µM | 2.15 µM | 5.85 µM | 4.36 µM | 15.7 µM | 3.56 µM | 12.4 µM | 2.38 µM | 6.77 µM |  |  |  | 
2 | CC(Cl)(/C=C/Cl)C(Cl)/C=C/C(Cl)(CCl)CBr (configuration not stated) |  | 13.7 µM |  | 29.5 µM |  | 12.5 µM |  | 27.3 µM |  |  |  | 11.3 µM |  | 28.1 µM |  | 28.6 µM | 22.9 µM | 9.36 µM |  | 
3 | O/N=C1/C(=C/c2ccc(F)cc2)CCCC1C(NO)c1ccc(F)cc1 (configuration not stated) |  | > 100 µM |  |  |  | 43.6 µM |  | > 100 µM |  |  |  | > 100 µM |  | > 100 µM |  | 72.5 µM |  | > 100 µM |  | 
4 | COC1C=C(Nc2cccc(Cl)c2)C(=O)C1 (configuration not stated) |  | > 100 µM |  | > 100 µM |  | > 100 µM |  | > 100 µM |  |  |  | > 100 µM |  | > 100 µM |  | > 100 µM | > 100 µM | > 100 µM |  | 
5 | CCOC(=O)/C(C1=N[C@H](C(=O)OCC)CS1)=C(\C)O |  | > 100 µM |  | > 100 µM |  | > 100 µM |  | > 100 µM |  |  |  | > 100 µM |  | > 100 µM |  | > 100 µM | > 100 µM | > 100 µM |  | 
6 | CC(C)=CC(=O)CC(=O)C(=O)Nc1ccc(C)c(C)c1 |  | > 100 µM |  |  |  | > 100 µM |  | > 100 µM |  |  |  | > 100 µM |  | > 100 µM |  | > 100 µM | > 100 µM |  |  | 
7 | O=C1C2=C(c3ccccc31)C(c1ccc(Cl)cc1)N1C(=O)CCSC1=N2 (configuration not stated) |  | > 100 µM |  | > 100 µM |  | > 100 µM |  | > 100 µM |  |  |  | > 100 µM |  | > 100 µM |  | > 100 µM | > 100 µM | > 100 µM |  | 
8 | S=c1[nH]nc(COc2ccc(Cl)cc2)o1 |  | > 100 µM |  | > 100 µM |  | > 100 µM |  | > 100 µM |  |  |  | > 100 µM |  | > 100 µM |  | > 100 µM | > 100 µM | > 100 µM |  | 
9 | COc1ccc(/C=C2/CCCC/C2=N/O)cc1 |  | > 100 µM |  | > 100 µM |  | > 100 µM |  | > 100 µM |  |  |  | > 100 µM |  |  |  | > 100 µM |  | > 100 µM |  | 
10 | C1CCC([PH+](C2CCCCC2)C2CCCCC2[PH+](C2CCCCC2)C2CCCCC2)CC1.[Au].[CH-]1CCCCC1C1CCCC[N-]1 (configuration not stated) | 0.208 µM | 0.844 µM | 0.377 µM | 1.79 µM |  |  |  |  | 0.294 µM | 1.36 µM |  |  |  |  | 1.36 µM | 2.69 µM |  |  |  | 
11 | O=C(Cc1ccccc1)NN1C(=O)C(Cl)C1c1cccc(O)c1 (configuration not stated) |  | 76.3 µM |  | 27.5 µM |  | 33.4 µM |  | > 100 µM |  |  |  | 53.7 µM |  | 34.8 µM |  | 29.4 µM | 43.4 µM | 40 µM |  | 
12 | COc1cccc(NC(=O)c2sc3nc4c(cc3c2N)CCCC4)c1 |  |  | 3.31 µM | > 100 µM | 3.98 µM | > 100 µM | 0.813 µM | 53.5 µM | 0.497 µM | 25.4 µM | 0.714 µM | 37 µM | 0.503 µM | 66.3 µM | 0.859 µM | > 100 µM | 43.8 µM | 39.9 µM | 2.6 µM | 0.998 µM
13 | NNC(=O)/C(=C/c1cccc([N+](=O)[O-])c1)NC(=O)c1ccccc1 |  | > 100 µM |  | > 100 µM |  | > 100 µM |  | > 100 µM |  |  |  | > 100 µM |  | > 100 µM |  | > 100 µM | > 100 µM | > 100 µM |  | 
14 | COc1cc(C2C(Cl)C(=O)N2n2cnc3ccccc3c2=O)cc(OC)c1OC (configuration not stated) |  | > 100 µM |  | > 100 µM |  | > 100 µM |  | > 100 µM |  |  |  | > 100 µM |  | > 100 µM |  | > 100 µM | > 100 µM | > 100 µM |  | 
15 | NC(N)=NS(=O)(=O)c1ccc(NC(=O)c2cccc3c(Nc4ccc(S(=O)(=O)N=C(N)N)cc4)c4ccc(Cl)cc4nc23)cc1 |  | > 100 µM |  | > 100 µM |  | > 100 µM |  | > 100 µM |  |  |  | > 100 µM |  | > 100 µM |  | > 100 µM |  | > 100 µM |  | 
16 | CCOC(=O)Cc1c(Cc2[nH]c(C(=O)OCc3ccccc3)c(CC(=O)OCC)c2CC(=O)OCC)[nH]c(C(=O)OCc2ccccc2)c1CC(=O)OCC |  | > 100 µM |  |  |  | > 100 µM |  | > 100 µM |  |  |  | > 100 µM |  | > 100 µM |  | > 100 µM |  |  |  | 
17 | CCCCN(CCCC)C(=O)C(=O)CC(=O)c1ccc(Br)cc1 |  | > 100 µM |  | > 100 µM |  | > 100 µM |  | > 100 µM |  |  |  | > 100 µM |  | > 100 µM |  | > 100 µM | > 100 µM | > 100 µM |  | 
18 | Cc1cc(Br)cc(C)c1NC(=O)C(=O)CC(=O)c1sc(-n2nc(-c3ccccc3)cc2-c2ccccc2)nc1C |  | > 100 µM |  | > 100 µM |  | > 100 µM |  | > 100 µM |  |  |  | > 100 µM |  | > 100 µM |  | > 100 µM | > 100 µM | > 100 µM |  | 
19 | NC(N)=NC(CC(=O)O)c1ccccc1 (configuration not stated) |  | > 100 µM |  | > 100 µM |  | > 100 µM |  | > 100 µM |  | > 100 µM |  | > 100 µM |  | > 100 µM |  | > 100 µM |  | > 100 µM |  | 
20 | CC1=C(C(=O)Nc2ccccc2)C(c2ccc3c(c2)OCO3)C(C(=O)Nc2ccccc2)=C(C)N1 |  | > 100 µM |  |  |  | > 100 µM |  | > 100 µM |  |  |  | > 100 µM |  | > 100 µM |  | > 100 µM | > 100 µM | 81.4 µM |  | 
21 | Cn1ncc2cc3c(Nc4ccc(Cl)cc4)cccc3nc21 |  | 56.3 µM |  |  |  | 70.8 µM |  | > 100 µM |  |  |  | > 100 µM |  | 61.3 µM |  | 88.7 µM |  | 40 µM |  | 
22 | COc1c(OC(C)=O)ccc(/C=C2\N=C(C)OC2=O)c1[N+](=O)[O-] |  | > 100 µM |  | > 100 µM |  | > 100 µM |  | > 100 µM |  |  |  | > 100 µM |  | > 100 µM |  | > 100 µM |  | > 100 µM |  | 
23 | C/C(=N\NC(=S)Nc1ccc(C(=O)O)cc1)c1ccccn1 |  | 35.1 µM |  | 60.7 µM |  | 35.8 µM |  |  |  |  |  | > 100 µM |  | 80.5 µM |  | 39.8 µM | 34.2 µM | 29.5 µM |  | 
